# Source: patent publication US7662936B2, “Mass spectrometry of antibody conjugates” (priority 2004, dated 2010)
# Where a SMILES comes first, the peptide text is derived from it. [ ]: non-standard residue; d: D form. The star is where a group is joined. Dolaproine = CO[C@@H]([C@@H]1CCCN1)[C@@H](C)C(=O)O; Dil = CC[C@H](C)[C@H](NC)[C@@H](CC(=O)O)OC; X1 = C[C@@H](N*)[C@@H](O)c1ccccc1; NMeV = CN[C@H](C(=O)O)C(C)C
# How the values were obtained:
# [1] = Rat study of trastuzumab-MC-val-cit-PAB-MMAE (Example 8): clinical observations, mortality, body weight; assay type: in vivo, Sprague-Dawley rats
# Experimental: Groups 2 and 3 were administered a preparation of Tr-MC-val-cit-PAB-MMAE with average drug loading of 8.7 MMAE/Tr. Groups 4, 5, and 6 were administered a preparation of Tr-MC-val-cit-PAB-MMAE with average drug loading of 5.3 MMAE/Tr. […] Group 6 received the highest dose of 4209 μg MMAE/m^2.
# The dose solutions were administered by a single intravenous bolus tail-vein injection on Study Day 1 at a dose volume of 10 ml/kg. […] Body weights of the animals were measured pre-dose on Study Day 1 and daily thereafter. Whole blood was collected into EDTA containing tubes for hematology parameters and complete blood counts. Whole blood was collected into serum separator tubes for clinical chemistry parameters. Blood samples were collected pre-dose on […], and on Study Days 3 and 5. Whole blood was also collected into lithium heparin containing tubes and the plasma was frozen at −70° C. for later analysis.
# [2] = cited from earlier work
# [3] = more cytotoxic; cited from earlier work
SMILES,"appearance of animals throughout the 5 days on study ([1]; Group 7, free MMAE 0.206 mg/kg, single iv bolus, 6 female rats)","changes in body weight ([1]; groups 2, 4 and 7, comparable amounts of MMAE (840 ug/m^2))",adverse effects leading to discontinuation of clinical trials [2],"cytotoxicity relative to conventional cancer chemotherapeutic agents like methotrexate, daunorubicin, and vincristine [3]"
CC[C@H](C)[C@@H]([C@@H](CC(=O)N1CCC[C@H]1[C@H](OC)[C@@H](C)C(=O)N[C@H](C)[C@@H](O)c1ccccc1)OC)N(C)C(=O)[C@@H](NC(=O)[C@@H](NC)C(C)C)C(C)C [MMAE] (H-[NMeV]V[Dil][Dolaproine]-X1),appeared healthy,comparable changes in body weight,,
COc1cc2cc(c1Cl)N(C)C(=O)C[C@H](OC(=O)[C@H](C)N(C)C(C)=O)[C@]1(C)O[C@H]1[C@H](C)[C@@H]1C[C@@](O)(NC(=O)O1)[C@H](OC)/C=C/C=C(\C)C2 [Maytansine],,,serious adverse effects on the central nervous system and gastrointestinal system,100-to 1000 fold
